Literature values, collected in patent US8246984B2, “Formulation of insoluble small molecule therapeutics in lipid-based carriers” (Rigel Pharmaceuticals, Inc., priority 2005, dated 2012).

Settings: transition temperature, gel to liquid crystalline phase

Tm	Structure (SMILES)
23 °C	CCCCCCCCCCCCCC(=O)OC[C@H](COP(=O)([O-])OCC[N+](C)(C)C)OC(=O)CCCCCCCCCCCCC [Dimyristoylphosphatidylcholine]
41 °C	CCCCCCCCCCCCCCCC(=O)OC[C@H](COP(=O)([O-])OCC[N+](C)(C)C)OC(=O)CCCCCCCCCCCCCCC [Dipalmitoylphosphatidylcholine]
−22 °C	CCCCCCCC/C=C\CCCCCCCC(=O)OC[C@H](COP(=O)([O-])OCC[N+](C)(C)C)OC(=O)CCCCCCC/C=C\CCCCCCCC [Dioleoylphosphatidylcholine, 1,2-dioleoyl-sn-glycero-3-phosphocholine]
55 °C	CCCCCCCCCCCCCCCCCC(=O)OC[C@H](COP(=O)([O-])OCC[N+](C)(C)C)OC(=O)CCCCCCCCCCCCCCCCC [Distearoylphosphatidylcholine]
